Laboratory results as given in US11040947B2, “Substituted quinazolines as matrix metalloproteinase-9 hemopexin domain inhibitors” (The Research Foundation for The State University of New York, priority 2017, dated 2021).

Legend:
[1] = system: HT1080 cells stably expressing GFP; experiment: chorioallantoic membrane (CAM) assay, invasion; assay type: in vivo, chicken embryo; settings: 100 μM stock solution (final estimated 0.5 μM), vs DMSO or 1f
Description: HT1080 cells stably expressing GFP were mixed with a type I collagen solution (3 mg/mL) and seeded atop the CAM to ensure the cells localized to a specific area. […] The invasion of cancer cells through the epithelium and basement membrane of the upper CAM into connecting tissue was examined by hematoxylin and eosin staining in addition to fluorescence microscopy for GFP^+ cells.

[2] = target: T1, APMA-activated recombinant proMMP-9 (Homo sapiens, UniProt P14780); experiment: MMP-9 catalytic activity with fluorogenic peptide; assay type: biochemical; settings: 10 μM fluorogenic peptide, monitored over 2 hours
T1 construct: made in house
T1 sequence (P14780 107-707 limits assumed): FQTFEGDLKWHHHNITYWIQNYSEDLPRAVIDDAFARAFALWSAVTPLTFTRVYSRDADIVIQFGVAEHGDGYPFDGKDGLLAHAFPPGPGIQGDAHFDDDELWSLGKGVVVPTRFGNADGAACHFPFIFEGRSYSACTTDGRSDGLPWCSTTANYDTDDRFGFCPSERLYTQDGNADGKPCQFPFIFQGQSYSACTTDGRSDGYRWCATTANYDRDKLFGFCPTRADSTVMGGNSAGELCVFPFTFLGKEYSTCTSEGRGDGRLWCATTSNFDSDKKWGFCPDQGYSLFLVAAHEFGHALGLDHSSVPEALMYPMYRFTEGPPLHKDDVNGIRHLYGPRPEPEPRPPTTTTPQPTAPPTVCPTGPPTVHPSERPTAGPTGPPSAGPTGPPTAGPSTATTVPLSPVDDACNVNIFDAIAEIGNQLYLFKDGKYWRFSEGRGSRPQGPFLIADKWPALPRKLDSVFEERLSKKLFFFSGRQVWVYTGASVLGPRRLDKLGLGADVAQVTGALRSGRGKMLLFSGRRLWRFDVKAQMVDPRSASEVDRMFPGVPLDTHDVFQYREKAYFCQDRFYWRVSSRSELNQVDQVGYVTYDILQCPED
Description: Recombinant proMMP-9 protein was purified and incubated overnight in a 37° C. water bath in TNC buffer+1 mM APMA to artificially activate the protein.

[3] = system: proMMP-9/MMP-2PEX chimera; experiment: tryptophan fluorescence titration with chimera; assay type: binding
Description: A blue shift in proMMP-9 tryptophan fluorescence was monitored to determine the binding affinity of all compounds. Binding of a test compound to MMP-9 was assayed by observing the change of tryptophan emission upon binding. Purified recombinant MMP-9 (50 nmol/L) or MMP-9/MMP-2PEX (50 nmol/L) was diluted in buffer (50 mmol/L Tris-HCl, 60 mmol/L KCl, and 0.05% Tween 20, pH 7.4) in the presence or absence of the test compound. As a control for protein stability and loss, an analogous buffer solution was added to the protein. The protein sample was excited at 280 nm and emission scans were collected from 290 to 400 nm, using slit widths of 0.3 nm on a QM 4/200SE spectrofluorimeter with double excitation and emission monochromators. Three emission scans were collected and averaged at each concentration. The Kd was determined using the Prism software package (GraphPad V5) to fit the data to Equation (Δ). λmax=(λmax^∞×[2])/(Kd+[2]) (A) in which λmax is the wavelength at which maximal fluorescence of the protein was observed.
A chimera of proMMP-9 and MMP-2 in which the MMP-9 PEX domain was replaced by that of MMP-2, (proMMP-9/MMP-2PEX) was tested for analog binding.

## O=C(CCCSc1nc2c(c(=O)[nH]1)CCCC2)Nc1ccc(F)cc1 [Compound 3c, N-(4-Fluorophenyl)-4-(4-oxo-3,4,5,6,7,8-hexahydroquinazolin-2-ylthio)butanamide]
[1]
  invasion of CAM tissue: reduced invasion of CAM tissue
[2]
  inhibition of MMP-9 catalytic activity: No inhibition of the catalytic activity was observed
[3]
  shift in fluorescence upon titration with chimera: no shift in fluorescence was observed
